# Laboratory results from ChEMBL document CHEMBL5113463, “Discovery and preclinical evaluations of JBD0131, a novel nitrodihydro-imidazooxazole anti-tuberculosis agent” (Bioorg Med Chem Lett, 2022).
# Tests used:
# [1] = Drug distribution in Sprague-Dawley rat lung at 10 mg/kg, po administered as C14-lableled compound and assessed as radioactivity; format: ADME, organism-based; conditions: in vivo
# [2] = Efflux ratio of apparent permeability across basolateral to apical over apical to basolateral membrane in dog MDCK cells; format: ADME, cell-based, Canis lupus familiaris
# [3] = Half life in Sprague-Dawley rat at 1 mg/kg, iv; format: ADME, organism-based; conditions: in vivo
# [4] = Apparent permeability across apical to basolateral side in dog MDCK cells; format: ADME, cell-based, Canis lupus familiaris
# [5] = Half life in Beagle dog at 0.5 mg/kg, iv; format: ADME, organism-based, Canis lupus familiaris; conditions: in vivo
# [6] = Drug distribution in Sprague-Dawley rat kidney at 10 mg/kg, po administered as C14-lableled compound and assessed as radioactivity; format: ADME, organism-based; conditions: in vivo
# [7] = Aqueous solubility of compound at pH 2.0; format: physicochemical; conditions: buffer
# [8] = Apparent permeability across basolateral to apical side in dog MDCK cells; format: ADME, cell-based, Canis lupus familiaris
# [9] = Volume of distribution in Sprague-Dawley rat at 1 mg/kg, iv; format: ADME, organism-based; conditions: in vivo
# [10] = Metabolic stability in cynomolgus monkey liver microsomes assessed as half life; format: ADME, Macaca fascicularis, Microsome
# [11] = Aqueous solubility of compound at pH 7.4; format: physicochemical; conditions: buffer
# [12] = Metabolic stability in mouse liver microsomes assessed as half life; format: ADME, Microsome
# [13] = Oral bioavailability in Beagle dog at 2 mg/kg; format: ADME, organism-based, Canis lupus familiaris; conditions: in vivo
# [14] = Cytotoxicity against African green monkey vero cells assessed as reduction in cell viability; format: toxicity, cell-based; conditions: chlorocebus sabaeus
# [15] = Volume of distribution in CD-1 mouse at 0.6 mg/kg, iv; format: ADME, organism-based; conditions: in vivo
# [16] = molecular target: T1, A-type voltage-gated potassium channel KCND3 (Homo sapiens, UniProt Q9UK17); assay: Inhibition of Kv4.3 (unknown origin)
# T1 sequence (Q9UK17 whole entry): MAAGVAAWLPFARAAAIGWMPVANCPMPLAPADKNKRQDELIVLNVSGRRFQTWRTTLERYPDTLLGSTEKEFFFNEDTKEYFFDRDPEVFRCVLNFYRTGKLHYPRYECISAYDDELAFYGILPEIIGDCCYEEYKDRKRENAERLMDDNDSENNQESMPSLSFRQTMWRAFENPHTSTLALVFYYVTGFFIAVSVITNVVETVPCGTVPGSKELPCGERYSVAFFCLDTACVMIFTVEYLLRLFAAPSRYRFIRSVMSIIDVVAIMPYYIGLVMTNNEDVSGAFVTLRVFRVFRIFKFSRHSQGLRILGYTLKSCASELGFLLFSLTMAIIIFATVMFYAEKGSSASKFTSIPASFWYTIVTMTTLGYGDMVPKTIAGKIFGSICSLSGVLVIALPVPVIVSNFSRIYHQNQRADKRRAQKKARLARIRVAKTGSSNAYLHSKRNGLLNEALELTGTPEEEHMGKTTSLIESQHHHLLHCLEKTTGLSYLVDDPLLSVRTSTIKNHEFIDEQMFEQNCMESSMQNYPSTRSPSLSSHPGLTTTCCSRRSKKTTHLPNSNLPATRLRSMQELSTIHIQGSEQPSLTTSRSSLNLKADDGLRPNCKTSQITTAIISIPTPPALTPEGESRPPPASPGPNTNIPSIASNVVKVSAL
# [17] = molecular target: Sodium channel protein type 5 subunit alpha (Homo sapiens, UniProt Q14524); assay: Inhibition of NaV 1.5 (unknown origin)
# [18] = molecular target: Cytochrome P450 3A4 (Homo sapiens, UniProt P08684); assay: Inhibition of CYP3A4 (unknown origin); format: ADME
# [19] = test system: Mycobacterium tuberculosis; assay: Antimycobacterial activity against Mycobacterium tuberculosis H37Rv assessed as bacterial growth inhibition incubated for 10 days under hypoxic condition followed by 28 hrs incubation under normoxic condition by Low-Oxygen-Recovery Assay; format: functional; conditions: 264 h, time 11 day
# [20] = Half life in CD-1 mouse at 0.6 mg/kg, iv; format: ADME, organism-based; conditions: in vivo
# [21] = Oral bioavailability in CD-1 mouse at 5 mg/kg; format: ADME, organism-based; conditions: mouse, in vivo, po, 5 mg/kg
# [22] = Cmax in Sprague-Dawley rat at 4 mg/kg, po; format: ADME, organism-based; design: dose 4 mg/kg, route po; conditions: in vivo
# [23] = molecular target: Cytochrome P450 2C19 (Homo sapiens, UniProt P33261); assay: Inhibition of CYP2C19 (unknown origin); format: ADME
# [24] = Drug distribution in Sprague-Dawley rat intestinal wall at 10 mg/kg, po administered as C14-lableled compound and assessed as radioactivity; format: ADME, organism-based, Intestine; conditions: in vivo
# [25] = test system: Mycobacterium tuberculosis; assay: Antimycobacterial activity against Mycobacterium tuberculosis H37Rv assessed as bacterial growth inhibition incubated for 7 days by MABA assay; format: functional; conditions: 168 h, time 7 day
# [26] = molecular target: Cytochrome P450 2C9 (Homo sapiens, UniProt P11712); assay: Inhibition of CYP2C9 (unknown origin); format: ADME
# [27] = Metabolic stability in dog liver microsomes assessed as half life; format: ADME, Canis lupus familiaris, Microsome
# [28] = AUC (0-last) in Sprague-Dawley rat at 4 mg/kg, po; format: ADME, organism-based; conditions: in vivo
# [29] = Cmax in Beagle dog at 2 mg/kg, po; format: ADME, organism-based, Canis lupus familiaris; design: dose 2 mg/kg, route po; conditions: in vivo
# [30] = Cmax in CD-1 mouse at 5 mg/kg, po; format: ADME, organism-based; design: dose 5 mg/kg, route po; conditions: in vivo
# [31] = molecular target: T2, Cytochrome P450 2C8 (Homo sapiens, UniProt P10632); assay: Inhibition of CYP2C8 (unknown origin); format: ADME
# T2 sequence (P10632 whole entry): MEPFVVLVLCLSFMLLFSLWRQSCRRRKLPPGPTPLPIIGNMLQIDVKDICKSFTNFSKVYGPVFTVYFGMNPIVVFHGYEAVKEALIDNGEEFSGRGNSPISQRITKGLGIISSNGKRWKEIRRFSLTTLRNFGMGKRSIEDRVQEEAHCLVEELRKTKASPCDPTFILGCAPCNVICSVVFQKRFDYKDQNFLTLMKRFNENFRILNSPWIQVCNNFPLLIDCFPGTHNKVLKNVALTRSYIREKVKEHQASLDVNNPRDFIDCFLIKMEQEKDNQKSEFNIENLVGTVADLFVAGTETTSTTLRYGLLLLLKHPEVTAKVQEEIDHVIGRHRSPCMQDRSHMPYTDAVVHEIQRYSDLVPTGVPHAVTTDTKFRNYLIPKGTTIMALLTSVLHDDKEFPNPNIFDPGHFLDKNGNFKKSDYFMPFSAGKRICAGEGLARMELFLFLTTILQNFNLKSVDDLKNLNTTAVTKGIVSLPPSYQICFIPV
# [32] = AUC (0-last) in CD-1 mouse at 5 mg/kg, po; format: ADME, organism-based; design: dose 5 mg/kg, route po; conditions: mouse, in vivo
# Chain of Sodium channel protein type 5 subunit alpha (Q14524 whole entry): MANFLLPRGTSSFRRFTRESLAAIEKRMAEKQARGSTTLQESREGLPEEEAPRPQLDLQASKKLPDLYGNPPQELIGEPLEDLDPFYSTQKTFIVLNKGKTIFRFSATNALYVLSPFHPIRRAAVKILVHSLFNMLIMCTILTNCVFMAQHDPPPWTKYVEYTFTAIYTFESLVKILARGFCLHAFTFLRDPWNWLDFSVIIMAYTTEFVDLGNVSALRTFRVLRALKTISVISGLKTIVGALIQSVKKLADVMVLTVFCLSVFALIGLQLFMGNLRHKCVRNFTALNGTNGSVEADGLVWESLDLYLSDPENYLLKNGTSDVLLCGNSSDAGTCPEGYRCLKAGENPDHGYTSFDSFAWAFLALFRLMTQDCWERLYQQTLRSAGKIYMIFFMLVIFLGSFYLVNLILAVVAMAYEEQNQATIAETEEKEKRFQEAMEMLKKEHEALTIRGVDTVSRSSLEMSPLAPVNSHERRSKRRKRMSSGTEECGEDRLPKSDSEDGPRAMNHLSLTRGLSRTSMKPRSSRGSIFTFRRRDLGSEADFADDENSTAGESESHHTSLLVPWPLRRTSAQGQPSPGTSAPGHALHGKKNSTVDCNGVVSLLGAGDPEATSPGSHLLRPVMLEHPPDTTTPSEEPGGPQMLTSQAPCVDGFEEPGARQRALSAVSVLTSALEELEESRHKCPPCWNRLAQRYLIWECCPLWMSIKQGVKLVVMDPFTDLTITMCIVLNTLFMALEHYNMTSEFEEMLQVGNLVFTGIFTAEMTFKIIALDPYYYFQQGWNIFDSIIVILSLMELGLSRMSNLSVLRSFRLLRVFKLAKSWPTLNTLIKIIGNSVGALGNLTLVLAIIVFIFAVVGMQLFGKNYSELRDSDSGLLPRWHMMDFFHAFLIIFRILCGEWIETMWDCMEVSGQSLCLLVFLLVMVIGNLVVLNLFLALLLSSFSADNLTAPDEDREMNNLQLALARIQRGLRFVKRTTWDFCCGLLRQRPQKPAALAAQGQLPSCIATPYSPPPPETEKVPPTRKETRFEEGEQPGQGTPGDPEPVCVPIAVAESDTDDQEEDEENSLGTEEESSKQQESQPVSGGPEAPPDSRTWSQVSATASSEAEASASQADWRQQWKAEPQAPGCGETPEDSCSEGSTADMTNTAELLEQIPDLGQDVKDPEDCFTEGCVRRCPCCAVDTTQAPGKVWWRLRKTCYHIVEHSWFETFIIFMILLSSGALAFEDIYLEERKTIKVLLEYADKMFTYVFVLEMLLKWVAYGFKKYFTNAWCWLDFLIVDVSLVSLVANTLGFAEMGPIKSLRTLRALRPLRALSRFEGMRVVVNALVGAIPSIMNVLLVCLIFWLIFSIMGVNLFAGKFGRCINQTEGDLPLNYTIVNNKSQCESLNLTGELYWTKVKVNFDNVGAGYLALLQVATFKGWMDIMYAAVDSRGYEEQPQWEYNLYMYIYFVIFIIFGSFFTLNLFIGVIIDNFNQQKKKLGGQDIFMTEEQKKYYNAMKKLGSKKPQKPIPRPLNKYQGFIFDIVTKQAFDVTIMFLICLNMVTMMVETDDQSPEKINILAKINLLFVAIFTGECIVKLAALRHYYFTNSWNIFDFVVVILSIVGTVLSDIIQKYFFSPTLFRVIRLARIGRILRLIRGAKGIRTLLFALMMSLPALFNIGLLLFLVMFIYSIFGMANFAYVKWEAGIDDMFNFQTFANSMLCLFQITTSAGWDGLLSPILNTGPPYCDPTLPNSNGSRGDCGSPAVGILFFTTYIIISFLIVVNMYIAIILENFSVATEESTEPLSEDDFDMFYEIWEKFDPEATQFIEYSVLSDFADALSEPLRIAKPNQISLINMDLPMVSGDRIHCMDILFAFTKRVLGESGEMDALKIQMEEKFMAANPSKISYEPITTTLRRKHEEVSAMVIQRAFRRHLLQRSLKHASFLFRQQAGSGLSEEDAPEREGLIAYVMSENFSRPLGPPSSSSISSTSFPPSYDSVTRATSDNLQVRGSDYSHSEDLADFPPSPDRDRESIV
# Chain of Cytochrome P450 2C9 (P11712 whole entry): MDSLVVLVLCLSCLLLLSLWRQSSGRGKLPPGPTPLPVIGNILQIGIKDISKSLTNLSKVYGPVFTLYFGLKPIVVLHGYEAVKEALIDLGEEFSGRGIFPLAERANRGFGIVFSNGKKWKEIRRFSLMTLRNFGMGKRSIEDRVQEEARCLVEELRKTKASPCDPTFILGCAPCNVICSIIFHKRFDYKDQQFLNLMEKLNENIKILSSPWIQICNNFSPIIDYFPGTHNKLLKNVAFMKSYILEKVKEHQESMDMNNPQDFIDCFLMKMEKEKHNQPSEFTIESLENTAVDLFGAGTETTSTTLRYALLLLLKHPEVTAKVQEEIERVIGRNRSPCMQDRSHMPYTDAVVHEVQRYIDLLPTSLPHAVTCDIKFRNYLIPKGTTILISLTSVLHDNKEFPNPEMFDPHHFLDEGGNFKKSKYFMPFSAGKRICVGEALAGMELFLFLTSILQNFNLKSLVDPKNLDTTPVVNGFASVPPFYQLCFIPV
# Chain of Cytochrome P450 3A4 (P08684 whole entry): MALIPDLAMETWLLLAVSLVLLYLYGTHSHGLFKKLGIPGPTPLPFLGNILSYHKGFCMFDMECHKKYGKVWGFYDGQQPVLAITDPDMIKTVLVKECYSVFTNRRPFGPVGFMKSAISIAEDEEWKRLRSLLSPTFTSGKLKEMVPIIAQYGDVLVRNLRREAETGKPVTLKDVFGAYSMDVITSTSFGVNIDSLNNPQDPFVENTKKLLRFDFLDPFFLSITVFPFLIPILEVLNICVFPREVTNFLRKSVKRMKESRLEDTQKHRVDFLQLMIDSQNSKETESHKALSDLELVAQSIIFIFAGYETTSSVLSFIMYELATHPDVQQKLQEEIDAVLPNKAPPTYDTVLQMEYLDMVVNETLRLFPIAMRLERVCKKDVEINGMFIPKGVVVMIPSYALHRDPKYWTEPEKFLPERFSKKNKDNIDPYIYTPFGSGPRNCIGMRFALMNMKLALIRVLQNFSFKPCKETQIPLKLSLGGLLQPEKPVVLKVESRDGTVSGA
# Chain of Cytochrome P450 2C19 (P33261 whole entry): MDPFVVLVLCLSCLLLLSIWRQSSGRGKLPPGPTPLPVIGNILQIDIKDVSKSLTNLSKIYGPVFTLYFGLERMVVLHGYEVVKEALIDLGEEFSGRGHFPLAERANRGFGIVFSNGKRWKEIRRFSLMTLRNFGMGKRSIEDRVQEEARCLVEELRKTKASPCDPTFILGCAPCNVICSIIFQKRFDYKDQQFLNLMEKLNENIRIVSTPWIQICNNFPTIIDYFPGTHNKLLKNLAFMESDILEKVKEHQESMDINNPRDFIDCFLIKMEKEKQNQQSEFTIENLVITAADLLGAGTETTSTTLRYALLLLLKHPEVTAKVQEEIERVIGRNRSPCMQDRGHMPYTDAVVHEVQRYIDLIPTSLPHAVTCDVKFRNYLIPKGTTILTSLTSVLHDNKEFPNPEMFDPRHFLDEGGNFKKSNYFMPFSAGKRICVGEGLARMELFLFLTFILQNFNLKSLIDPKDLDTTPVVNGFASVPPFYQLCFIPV
structure (smiles),measurement,setting,value
C[C@]1(CN2Cc3nc(-c4ccc(F)cc4)sc3C2)CN=C(N)O1,Drug uptake,[1],Active
same,efflux ratio,[2],0.76
same,half-life,[3],2.79 h
same,Papp A→B,[4],20.9 ×10⁻⁶ cm/s
same,half-life,[5],6.03 h
same,Drug uptake,[6],Active
same,solubility,[7],32.2 µM
same,Papp B→A,[8],15.8 ×10⁻⁶ cm/s
same,Vd,[9],5.56 L/kg
same,half-life,[10],1.25 h
same,solubility,[11],13.5 µM
same,half-life,[12],1.05 h
same,bioavailability,[13],26.4%
same,CC50,[14],> 32 µg/mL
same,Vd,[15],2.69 L/kg
same,IC50,[16],> 13.3 µM
same,IC50,[17],> 13.3 µM
same,IC50,[18],> 100 µM
same,MIC,[19],5.63 µg/mL
same,half-life,[20],3.25 h
same,F,[21],31.2%
same,Cmax,[22],526 nM
same,IC50,[23],> 100 µM
same,Drug uptake,[24],Active
same,MIC,[25],0.035 µg/mL
same,IC50,[26],> 100 µM
same,half-life,[27],2.52 h
same,AUClast,[28],4520 ng·h
same,Cmax,[29],141 nM
same,Cmax,[30],753 ng/mL
same,IC50,[31],> 100 µM
same,AUClast,[32],7247 ng·h/mL
